Experimental findings from patent publication US5496805A, “Inhibitors of neutral endopeptidase” (priority 1990, dated 1996) are described below.

Structures can show the parent of a compound that is named as a salt.

The target in the test is T1, neutral endopeptidase (Rattus norvegicus, UniProt P07861).
T1 sequence (P07861 1-750): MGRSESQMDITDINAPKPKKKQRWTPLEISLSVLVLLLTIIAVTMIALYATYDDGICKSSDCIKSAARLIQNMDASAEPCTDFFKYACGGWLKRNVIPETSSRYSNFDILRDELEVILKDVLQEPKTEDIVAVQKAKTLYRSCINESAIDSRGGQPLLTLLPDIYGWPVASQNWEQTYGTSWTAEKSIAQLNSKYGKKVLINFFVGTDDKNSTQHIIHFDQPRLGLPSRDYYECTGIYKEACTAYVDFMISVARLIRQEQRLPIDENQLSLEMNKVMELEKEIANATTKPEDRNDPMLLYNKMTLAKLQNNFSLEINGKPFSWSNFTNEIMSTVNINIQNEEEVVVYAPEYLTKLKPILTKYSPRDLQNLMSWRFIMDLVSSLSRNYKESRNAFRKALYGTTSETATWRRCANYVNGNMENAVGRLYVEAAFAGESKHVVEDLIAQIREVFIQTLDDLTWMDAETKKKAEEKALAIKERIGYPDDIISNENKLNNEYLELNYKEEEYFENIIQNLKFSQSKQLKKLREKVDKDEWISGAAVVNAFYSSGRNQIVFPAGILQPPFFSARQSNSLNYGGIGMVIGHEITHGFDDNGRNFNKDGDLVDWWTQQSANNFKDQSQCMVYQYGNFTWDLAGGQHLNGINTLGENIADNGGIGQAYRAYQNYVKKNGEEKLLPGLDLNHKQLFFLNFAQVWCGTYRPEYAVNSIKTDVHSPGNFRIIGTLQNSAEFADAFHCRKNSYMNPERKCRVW
Kind of test: biochemical. The note with it: enzyme purified from rat kidney; Dns-Gly-Phe-Arg 0.5 mM; pH 7.5; 37°, 30 minutes; inhibitor preincubated 10 minutes. As for the experimental part:
The in vitro neutral endopeptidase activity is determined using a fluorometric assay procedure. The assay is based upon the cleavage of the fluorescent dansylated tripeptide Dns-Gly-Phe-Arg to form Dns-Gly. The latter is extracted from the acidified mixture by ethyl acetate and is strongly fluorescent.
The incubation mixture employed for the assay contains the substance Dns-Gly-Phe-Arg (0.5 mM), tris(hydroxymethyl)aminomethane -HCl buffer (pH 7.5, 50 mM), an enzyme preparation in 0.05% Triton X-100, and water or inhibitor diluted to a final volume of 0.25 ml. The enzyme preparation is purified from rat kidney according to the procedure described by Almenoff et al. in Biochemistry Vol. 22, p. 590-599 (1983). The inhibitor is preincubated for 10 minutes with the enzyme preparation and buffer before the reaction is initiated by the addition of the substrate. Incubation is carried out at 37° for 30 minutes and the reaction is stopped by the addition of 0.25 ml. 1N HCl and extraction of the Dns-Gly product into 1.5 ml. of ethyl acetate. Relative fluorescent intensity (RFI) of the ethyl acetate extract is measured using a Ferrand Spectofluorometer at excitation and emission wavelengths of 342 and 508 nm., respectively, corrected for the RFI of a zero-time control, and compared with assays lacking inhibitor.
Runs are made at different concentrations of test compound and by use of a mathematical model the IC50 is determined. The IC50 is the concentration of test compound that inhibits activity of the enzyme by 50%.
The molecule `CC(CS)C(=O)N[C@@H](CCCNC(=N)N)C(=O)O` (mixture of isomers) [Example 3, N-(DL-3-Mercapto-2-methyl-1-oxopropyl)-L-arginine] came in with an IC50 of 720 nM. `N=C(N)NCCC[C@H](NC(=O)C(CS)Cc1ccccc1)C(=O)O` (mixture of isomers) [Example 4, N-[DL-2-(Mercaptomethyl)-1-oxo-3,-phenylpropyl]-L-arginine] displayed an IC50 of 290 nM. Against the preceding molecule, the IC50 is about 2.5-fold lower. In turn, `CC(CS)C(=O)N[C@@H](Cc1c[nH]c2ccccc12)C(=O)O` (mixture of isomers) [Example 5, N-(DL-3-Mercapto-2-methyl-1-oxopropyl)-L-tryptophan] displayed an IC50 of 20 nM.

`CC(CS)C(=O)N[C@@H](Cc1ccc(O)cc1)C(=O)O` (mixture of isomers) [Example 6, N-(DL-3-Mercapto-2,methyl1-oxopropyl)-L-tyrosine] registered a half-inhibitory concentration (IC50) of 13 nM. Under `CC(CS)C(=O)N[C@@H](Cc1ccc(O)c(O)c1)C(=O)O` (mixture of isomers) [Example 7, 3-Hydroxy-N-(DL-3-mercapto-2-methyl-1-oxopropyl)-L-tyrosine] stands 54 nM; under `CC(CS)C(=O)N[C@@H](Cc1ccccc1)C(=O)O` (mixture of isomers) [Example 17, (±)-N-(3-Mercapto-2-methyl-1-oxopropyl)-L-phenylalanine, 1,1-dimethylethanamine salt (1:1)], 14 nM. Under `CC(C)C[C@H](NC(=O)C(C)CS)C(=O)O` (mixture of isomers) [Example 18, (±)-N-(3-Mercapto-2-methyl-1-oxopropyl)-L-leucine, 1,1-dimethylethanamine salt (1:1)] stands 69 nM; under `CC(CS)C(=O)N[C@@H](CCC(=O)O)C(=O)O` (mixture of isomers) [Example 19, (±)-N-(3-Mercapto-2-methyl-1-oxopropyl)-L-glutamic acid, 1,1-dimethylethanamine salt (1:2)], 110 nM.

In the case of `CC(CS)C(=O)N[C@@H](CO)C(=O)O` (mixture of isomers) [Example 21, (±)-N-(3-Mercapto-2-methyl-1-oxopropyl)-L-serine, N-cyclohexylcyclohexamine salt(1:1)], the IC50 was 280 nM.

As to `CSCC[C@H](NC(=O)C(C)CS)C(=O)O` (mixture of isomers) [Example 23, (±)-N-(3-Mercapto-2-methyl-1-oxopropyl)-L-methionine, 1,1-dimethylethanamine salt (1:1)], half-maximal inhibition (IC50) was put at 49 nM. Against the preceding molecule, the IC50 is about 5.7-fold lower. Under `O=C(N[C@@H](Cc1ccc(O)c(O)c1)C(=O)O)C(CS)Cc1ccccc1` (mixture of isomers) [Example 24, (±)-3-Hydroxy-N-[2-(mercaptomethyl)-1-oxo-3-phenylpropyl]-L-tyrosine, 1,1-dimethylethanamine salt (1:1)] stands 47 nM. Regarding `CC(CS)C(=O)N[C@@H](C)C(=O)O` (mixture of isomers) [Example 25, (±)-N-(3-Mercapto-2-methyl-1-oxopropyl)-L-alanine, N-cyclohexylcyclohexanamine salt (1:1)], the IC50 came out at 120 nM. Molecule `O=C(NCCCC[C@H](NC(=O)C(CS)Cc1ccccc1)C(=O)O)OCc1ccccc1` (mixture of isomers) [Example 26, (±)-N^2-[2-(Mercaptomethyl)-1-oxo-3-phenylpropyl]-N^6-[(phenylmethoxy)carbonyl]-L-lysine, N-cyclohexylcyclohexanamine salt (1:1)] yielded an IC50 of 32 nM.

The molecule `O=C(N[C@@H](Cc1c[nH]c2ccccc12)C(=O)O)C(CS)Cc1ccccc1` (mixture of isomers) [Example 28, (±)-N-[2-(Mercaptomethyl)-1-oxo-3-phenylpropyl]-L -tryptophan, 1,1-dimethylethanamine salt (1:1)] displayed an IC50 of 7.8 nM. Take `CC(C)CC(CS)C(=O)NCC(=O)N[C@@H](CCCN=C(N)N)C(=O)O` (mixture of isomers) [Example 55, (±)-N-[N,[2-(Mercaptomethyl)-4-methyl-1-oxopentyl]-glycyl]-L-arginine]: it took 530 nM to reach half-maximal inhibition (IC50). The figure for `CC(C)CC(CS)C(=O)NCC(=O)N[C@@H](CCC(N)=O)C(=O)O` (mixture of isomers) [Example 59, (±)-N^2-[N-[2-(Mercaptomethyl)-4-methyl-1-oxopentyl]-glycyl]-L-glutamine, ammonium salt (1:1)] is 330 nM; for `CC(C)C[C@H](NC(=O)[C@H](Cc1ccccc1)NC(=O)[C@@H]1CCCC[C@H]1CS)C(=O)O` (mixture of isomers) [Example 67, (trans)-N-[N-[[2-(Mercaptomethyl)cyclohexyl]carbonyl]-L-phenylalanyl]-L-leucine] it is 970 nM; for `CC(C)C[C@@H](NC(=O)[C@@H](Cc1ccccc1)NC(=O)[C@@H]1CCCC[C@H]1C(=O)O)C(=O)O` (mixture of isomers) [Example 81, (trans)(R,R)-N-[N-[(2-Carboxycyclohexyl)carbonyl]-L-phenylalanyl]-L-leucine] it is 1200 nM.

For `CC(C)CC(CS)C(=O)NCC(=O)O` (racemic) [Example 8, (±)-N-[2-(Mercaptomethyl)-4-methyl-1-oxopentyl]-glycine], the IC50 was 280 nM. Molecule `CCCC(C)C(CS)C(=O)NCC(=O)O` (racemic) [Example 10, (±)-N-[2-(Mercaptomethyl)-3-methyl-1-oxohexyl]-glycine, N-cyclohexylcyclohexanamine salt (1:1)] registered an IC50 of 510 nM. This IC50 is about 1.8-fold higher than that of the molecule before.

`CC(C)CC(CS)C(=O)N[C@@H](CCCNC(=N)N)C(=O)O` (mixture of isomers) [Example 11, (±)-N^2-[2-(Mercaptomethyl)-4-methyl-1-oxopentyl]-L-arginine] returned an IC50 of 170 nM. In turn, `CC(CS)C(=O)NCC(=O)O` (racemic) [Example 16, (±)-N-(3-Mercapto-2-methyl-1-oxopropyl)glycine] gave an IC50 of 370 nM.

As to `CC(CS)C(=O)N[C@H](C(=O)O)C(C)C` (mixture of isomers) [Example 20, (±)-N-(3-Mercapto-2-methyl-1-oxopropyl)-L-valine], the IC50 was found to be 21 nM. Under `CSCC[C@H](NC(=O)C(CS)Cc1ccccc1)C(=O)O` (mixture of isomers) [Example 22, (±)-N-[2-(Mercaptomethyl)-1-oxo-3-phenylpropyl]-L -methionine] stands 6.7 nM. With `O=C(N[C@@H](Cc1ccc(O)cc1)C(=O)O)C(CS)Cc1ccccc1` (mixture of isomers) [Example 29, (±)-N-[2-(Mercaptomethyl)-1-oxo-3-phenylpropyl]-L -tyrosine], inhibition was half-maximal at 17 nM (IC50).

`CC(C)CC(CS)C(=O)N[C@@H](Cc1ccccc1)C(=O)O` (mixture of isomers) [Example 33, (±)-N-[2-(Mercaptomethyl)-4-methyl-1-oxopentyl]-L-phenylalanine] returned an IC50 of 9 nM. Against the preceding molecule, the IC50 is about 1.9-fold lower. The figure for `CC(C)CC(CS)C(=O)N[C@@H](CC(C)C)C(=O)O` (mixture of isomers) [Example 34, (±)-N-[2-(Mercaptomethyl)-4-methyl-1-oxopentyl]-L-leucine] is 12 nM. The figure for `O=C(O)CCNC(=O)C(CS)Cc1ccccc1` (racemic) [Example 45, (±)-3-[[2-(Mercaptomethyl)-1-oxo-3-phenylpropyl]amino]propanoic acid] is 8.9 nM. The figure for `O=C(O)CCCNC(=O)C(CS)Cc1ccccc1` (racemic) [Example 46, (±)-4-[[2-(Mercaptomethyl)-1-oxo-3-phenylpropyl]amino]butanoic acid] is 6 nM.
